“Also recorded” adds a separate entry of the source.
How the values were obtained:
rat kindling model [1] = type: in vivo
Description: Anesthesia was induced with 3% isoflurane, 67% N2O, 30% O2 and maintained with 1.5% isoflurane, 68.5% N2O, 30% O2, while rats (N=22) were placed in a Kopf stereotactic frame. […]
Four days after surgery, the animals were stimulated unilaterally six times every second or third day with a Grass S-88 stimulator (1-ms square-wave pulses of 5V at 50-Hz frequency for 10 sec; 30 min-interval between stimulations). Behavioral seizures were scored according to the scale of Racine (3(2) Neurosurg. 234-52 (1978)). […] The electroencephalogram (EEG) was recorded for periods of 1 min before and 5 min after application of each stimulating pulse using a Nervus EEG monitoring system. […]
Seizure scores were determined after each stimulation according to the scale of Racine (1978). […]

rat kindling model [2] = settings: Silver et al., 1991; cited from earlier work
fully kindled rats [3] = settings: Boison et al. 2002; Güttinger et al. 2005; Huber et al. 2001; cited from earlier work
rat kindling model [4] = assay: Experiment 2a: kindling on days 4, 6, 8, 11 after implantation, then DPCPX test; type: in vivo; settings: 1 mg/kg, i.p., 30 min prior to stimulation, day twelve
Description: Experiment 2: Polymer implantation (see below) was combined with electrode implantation (see above) in the same surgery. Experiment 2a: Kindling was initiated four days after polymer implantation with the animals receiving 6 kindling stimulations (1-ms square-wave pulses of 5 V at 50-Hz frequency for 10 sec, 30-min interval between stimulations) each on day 4, 6, 8, and 11 after implantation; this amounted to a total of 24 stimulations. […] Twenty-four (24) hr after this drug test all animals were stimulated again once before being sacrificed for histological analysis. Experiment 2b (FIG. 3): Kindling was initiated four days after polymer implantation with the animals receiving six kindling stimulations each on days 4, 5, 6, 7, and 8, after implantation; this amounted to a total of 30 stimulations. In these incompletely kindled adenosine-implant recipients further stimulations were suspended until adenosine release from the polymers had expired (from day eighteen onwards). Kindling stimulations were resumed on days 18, 19, 20, 21, and 22 after implantation (6 stimulations/day; total of 30 additional stimulations). Afterwards the animals were sacrificed for histological analysis. […]

fully kindled rats [5] = assay: Experiment 1: suppression of kindled seizures by polymer-based adenosine release; type: in vivo, rat
Description: Experiment 1: Four days after surgery, the animals were stimulated unilaterally six times every second or third day with a Grass S-88 stimulator (1-ms square-wave pulses of 5 V at 50-Hz frequency for 10 s, 30-min interval between stimulations; these stimulations corresponded to about 350 μA, whereas the afterdischarge thresholds before kindling were in the range of 115 μA). Behavioral seizures were scored according to the scale of Racine (Racine, 1978). The electroencephalogram (EEG) was recorded for periods of 1 min before and 5 min after application of each stimulating pulse using a Nervus EEG monitoring system. Stimulations on each day were discontinued whenever a stage 5 seizure on that day was reached. Eventually, all animals reacted with a stage 5 seizure at the first (and then only) daily stimulation. After three stage 5 seizures elicited by the first stimulation on three subsequent kindling-days animals were considered to be fully kindled (i.e. reproducibility of stage 5 seizure activity after stimulation). […] Only animals that fulfilled these stringent kindling criteria were used for the subsequent experiments. Polymers were implanted into these fully kindled animals. Implant recipients received one test-stimulation each on day 4, 6, 10, 14, 18, and 21 after polymer implantation and were then subjected to histological analysis. […]

With `Nc1ncnc2c1ncn2[C@@H]1O[C@H](CO)[C@@H](O)[C@H]1O` [adenosine] the “doses sufficient to suppress kindling” value (rat kindling model [1]; focal infrahippocampal release, from Table 3) was “around 400 ng adenosine/day” and the “tolerability of high doses, gross behavioral changes” value (rat kindling model [1]; rat, in vivo) was “well tolerated”.
For `NC(=O)N1c2ccccc2C=Cc2ccccc21` [carbamazepine], the “effect on kindling development / antiepileptogenesis” value (rat kindling model [2]) is given as “did not affect kindling development during the drug-phase”.
In the case of `CCCn1c(=O)c2[nH]c(C3CCCC3)nc2n(CCC)c1=O` [DPCPX, 8-cyclopentyl-1,3-dipropylxanthine], the “seizures elicited by DPCPX paired with kindling stimulations” value (fully kindled rats [3]) is given as “readily elicits stage 5 seizures”, the “effect of DPCPX on seizure score in adenosine-releasing implant recipients” value (rat kindling model [4]) is given as “failed to elicit control group-like seizures; also recorded: did not increase the seizure score; also recorded: failed to increase seizure scores” and the “seizure stage elicited in an ADO-polymer treated rat after DPCPX” value (fully kindled rats [5]; 1 mg/kg, i.p., 30 min after injection, day three) is given as 5.
In the case of `OC[C@H]1O[C@@H](n2cnc3c(NC4CCCC4)nc(Cl)nc32)[C@H](O)[C@@H]1O` [CCPA, 2-chloro-N(6)-cyclopentyladenosine], the “seizure response to test stimulation” value (fully kindled rats [5]; 3 mg/kg i.p., 30 min prior to test stimulation, before polymer implantation) is reported as “complete seizure suppression”.

Source: patent publication US20110152214A1, “SILK POLYMER-BASED ADENOSINE RELEASE: THERAPEUTIC POTENTIAL FOR EPILEPSY” (TRUSTEES OF TUFTS COLLEGE, priority 2008, published 2011)
